Assay results from ChEMBL document CHEMBL1649312, “Absence of association between piperaquine in vitro responses and polymorphisms in the pfcrt, pfmdr1, pfmrp, and pfnhe genes in Plasmodium falciparum” (Antimicrob Agents Chemother, 2010).

Columns and labels:
Format in all cases: functional, organism-based
Plasmodium falciparum [1] = assay: Antimalarial activity against Plasmodium falciparum IMT 8425 assessed as inhibition of [3H] incorporation after 48 hrs by scintillation counter
Plasmodium falciparum [2] = assay: Antimalarial activity against Plasmodium falciparum IMT 31 assessed as inhibition of [3H] incorporation after 48 hrs by scintillation counter
Plasmodium falciparum [3] = assay: Antimalarial activity against Plasmodium falciparum IMT K14 assessed as inhibition of [3H] incorporation after 48 hrs by scintillation counter
Plasmodium falciparum [4] = assay: Antimalarial activity against Plasmodium falciparum W2 assessed as inhibition of [3H] incorporation after 48 hrs by scintillation counter
Plasmodium falciparum [5] = assay: Antimalarial activity against Plasmodium falciparum IMT Guy assessed as inhibition of [3H] incorporation after 48 hrs by scintillation counter
Plasmodium falciparum [6] = assay: Antimalarial activity against Plasmodium falciparum IMT 10500 assessed as inhibition of [3H] incorporation after 48 hrs by scintillation counter
Plasmodium falciparum [7] = assay: Antimalarial activity against Plasmodium falciparum 106/1 assessed as inhibition of [3H] incorporation after 48 hrs by scintillation counter
Plasmodium falciparum [8] = assay: Antimalarial activity against Plasmodium falciparum IMT 9881 assessed as inhibition of [3H] incorporation after 48 hrs by scintillation counter
Plasmodium falciparum [9] = assay: Antimalarial activity against Plasmodium falciparum IMT A4 assessed as inhibition of [3H] incorporation after 48 hrs by scintillation counter
Plasmodium falciparum [10] = assay: Antimalarial activity against Plasmodium falciparum FCM29 assessed as inhibition of [3H] incorporation after 48 hrs by scintillation counter
Plasmodium falciparum [11] = assay: Antimalarial activity against Plasmodium falciparum HB3 assessed as inhibition of [3H] incorporation after 48 hrs by scintillation counter
Plasmodium falciparum [12] = assay: Antimalarial activity against Plasmodium falciparum IMT 16332 assessed as inhibition of [3H] incorporation after 48 hrs by scintillation counter
Plasmodium falciparum [13] = assay: Antimalarial activity against Plasmodium falciparum PA assessed as inhibition of [3H] incorporation after 48 hrs by scintillation counter
Plasmodium falciparum [14] = assay: Antimalarial activity against Plasmodium falciparum IMT Vol assessed as inhibition of [3H] incorporation after 48 hrs by scintillation counter
Plasmodium falciparum [15] = assay: Antimalarial activity against Plasmodium falciparum IMT K4 assessed as inhibition of [3H] incorporation after 48 hrs by scintillation counter
Plasmodium falciparum [16] = assay: Antimalarial activity against Plasmodium falciparum 3D7 assessed as inhibition of [3H] incorporation after 48 hrs by scintillation counter
Plasmodium falciparum [17] = assay: Antimalarial activity against Plasmodium falciparum IMT L1 assessed as inhibition of [3H] incorporation after 48 hrs by scintillation counter
Plasmodium falciparum [18] = assay: Antimalarial activity against Plasmodium falciparum D6 assessed as inhibition of [3H] incorporation after 48 hrs by scintillation counter
Plasmodium falciparum [19] = assay: Antimalarial activity against Plasmodium falciparum IMT Bres assessed as inhibition of [3H] incorporation after 48 hrs by scintillation counter
Plasmodium falciparum [20] = assay: Antimalarial activity against Plasmodium falciparum IMT 10354 assessed as inhibition of [3H] incorporation after 48 hrs by scintillation counter
Plasmodium falciparum [21] = assay: Antimalarial activity against Plasmodium falciparum IMT Vol harboring Ppcrt M74I, N75E, K76T, A220S, Q271E, N326S mutant gene, Pmdr1 N86Y mutant gene and Pfmrp H191Y and S437A mutant gene assessed as incorporation of [3]H hypoxanthine after 48 hrs by scintillation counter
Plasmodium falciparum [22] = assay: Antimalarial activity against Plasmodium falciparum IMT K14 harboring Ppcrt M74I, N75E, K76T, A220S, Q271E, N326S mutant gene, Pmdr1 Y184F, S1034C, N1042D, D1246Y mutant gene and Pfmrp H191Y and S437A mutant gene assessed as incorporation of [3]H hypoxanthine after 48 hrs by scintillation counter; conditions: IMT K14, 48 h
Plasmodium falciparum [23] = assay: Antimalarial activity against Plasmodium falciparum IMT Bres harboring Ppcrt M74I, N75E, K76T, A220S, Q271E, N326S and I356T mutant gene, Pmdr1 N86Y mutant gene and Pfmrp H191Y and S437A mutant gene assessed as incorporation of [3]H hypoxanthine after 48 hrs by scintillation counter
Plasmodium falciparum [24] = assay: Antimalarial activity against Plasmodium falciparum IMT 10500 harboring Pfcrt Q271E mutant gene and Ppcrt I371R mutant gene and Pfnhe-1 ms4760 microsatellite mutant assessed as incorporation of [3]H hypoxanthine after 48 hrs by scintillation counter; conditions: IMT 10500, 48 h
Plasmodium falciparum [25] = assay: Antimalarial activity against Plasmodium falciparum 3D7 harboring Ppcrt I371R mutant gene and Pfnhe-1 ms4760 microsatellite mutant assessed as incorporation of [3]H hypoxanthine after 48 hrs by scintillation counter; conditions: 3D7, 48 h
Plasmodium falciparum [26] = assay: Antimalarial activity against Plasmodium falciparum D6 harboring Ppcrt I371R mutant gene assessed as incorporation of [3]H hypoxanthine after 48 hrs by scintillation counter; conditions: D6, 48 h
Plasmodium falciparum [27] = assay: Antimalarial activity against Plasmodium falciparum IMT A4 harboring Ppcrt M74I, N75E, K76T, […], Q271E, N326S and I356T mutant gene, Pmdr1 Y184F, N1042D, D1246Y mutant gene assessed as incorporation of [3]H hypoxanthine after 48 hrs by scintillation counter; conditions: IMT A4, 48 h
Plasmodium falciparum [28] = assay: Antimalarial activity against Plasmodium falciparum IMT 16332 harboring Ppcrt M74I, N75E, K76T, A220S, Q271E mutant gene, Pmdr1 N86Y mutant gene assessed as incorporation of [3]H hypoxanthine after 48 hrs by scintillation counter; conditions: IMT 16332, 48 h
Plasmodium falciparum [29] = assay: Antimalarial activity against Plasmodium falciparum W2 harboring Ppcrt M74I, N75E, K76T, A220S, Q271E, N326S and I356T mutant gene, Pmdr1 N86Y mutant gene and Pfmrp H191Y and S437A mutant gene assessed as incorporation of [3]H hypoxanthine after 48 hrs by scintillation counter; conditions: W2, 48 h
Plasmodium falciparum [30] = assay: Antimalarial activity against Plasmodium falciparum PA harboring Ppcrt M74I, N75E, K76T, A220S, Q271E, N326S and I356T mutant gene, Pmdr1 N86Y mutant gene and Pfmrp H191Y and S437A mutant gene assessed as incorporation of [3]H hypoxanthine after 48 hrs by scintillation counter
Plasmodium falciparum [31] = assay: Antimalarial activity against Plasmodium falciparum FCR3 assessed as inhibition of [3H] incorporation after 48 hrs by scintillation counter
Plasmodium falciparum [32] = assay: Antimalarial activity against Plasmodium falciparum IMT 9881 harboring Ppcrt I371R mutant gene assessed as incorporation of [3]H hypoxanthine after 48 hrs by scintillation counter; conditions: IMT 9881, 48 h
Plasmodium falciparum [33] = assay: Antimalarial activity against Plasmodium falciparum IMT K4 harboring Ppcrt M74I, N75E, K76T, A220S, Q271E, N326S mutant gene, Pmdr1 S1034C, N1042D mutant gene and Pfmrp H191Y and S437A mutant gene assessed as incorporation of [3]H hypoxanthine after 48 hrs by scintillation counter; conditions: IMT K4, 48 h
Plasmodium falciparum [34] = assay: Antimalarial activity against Plasmodium falciparum IMT K2 assessed as inhibition of [3H] incorporation after 48 hrs by scintillation counter
Plasmodium falciparum [35] = assay: Antimalarial activity against Plasmodium falciparum HB3 harboring Ppcrt I371R mutant gene and Pfmdr1 Y184F mutant gene assessed as incorporation of [3]H hypoxanthine after 48 hrs by scintillation counter; conditions: HB3, 48 h
Plasmodium falciparum [36] = assay: Antimalarial activity against Plasmodium falciparum FCR3 harboring Ppcrt M74I, N75E, K76T, A220S, Q271E, N326S and I356T mutant gene, Pmdr1 N86Y mutant gene and Pfmrp H191Y and S437A mutant gene assessed as incorporation of [3]H hypoxanthine after 48 hrs by scintillation counter; conditions: FCR3, 48 h
Plasmodium falciparum [37] = assay: Antimalarial activity against Plasmodium falciparum FCM29 harboring Ppcrt M74I, N75E, K76T, A220S, Q271E, N326S and I356T mutant gene, Pmdr1 N86Y mutant gene and Pfmrp H191Y and S437A mutant gene assessed as incorporation of [3]H hypoxanthine after 48 hrs by scintillation counter; conditions: FCM29, 48 h
Plasmodium falciparum [38] = assay: Antimalarial activity against Plasmodium falciparum 106/1 harboring Ppcrt M74I, N75E, K76T, A220S, Q271E, N326S and I356T mutant gene, Pmdr1 N86Y mutant gene and Pfmrp H191Y and S437A mutant gene assessed as incorporation of [3]H hypoxanthine after 48 hrs by scintillation counter; conditions: 106/1, 48 h
Plasmodium falciparum [39] = assay: Antimalarial activity against Plasmodium falciparum IMT 8425 harboring Ppcrt I371R mutant gene and Pfnhe-1 ms4760 microsatellite mutant assessed as incorporation of [3]H hypoxanthine after 48 hrs by scintillation counter; conditions: IMT 8425, 48 h
Plasmodium falciparum [40] = assay: Antimalarial activity against Plasmodium falciparum IMT L1 harboring Ppcrt M74I, N75E, K76T, A220S, Q271E mutant gene, Pmdr1 N86Y mutant gene and Pfmrp H191Y and S437A mutant gene assessed as incorporation of [3]H hypoxanthine after 48 hrs by scintillation counter; conditions: IMT L1, 48 h
Plasmodium falciparum [41] = assay: Antimalarial activity against Plasmodium falciparum IMT 10336 harboring Pfcrt Q271E mutant gene and Ppcrt I371R mutant gene assessed as incorporation of [3]H hypoxanthine after 48 hrs by scintillation counter; conditions: IMT 10336, 48 h
Plasmodium falciparum [42] = assay: Antimalarial activity against Plasmodium falciparum IMT Guy harboring Ppcrt K76T, A220S, N326D and I371R mutant gene, Pmdr1 […], 1042D and D1246Y, mutant gene and Pfmrp H191Y and S437A mutant gene and Pfnhe-1 ms4760 microsatellite mutant assessed as incorporation of [3]H hypoxanthine after 48 hrs by scintillation counter
Plasmodium falciparum [43] = assay: Antimalarial activity against Plasmodium falciparum IMT 10336 assessed as inhibition of [3H] incorporation after 48 hrs by scintillation counter
Plasmodium falciparum [44] = assay: Antimalarial activity against Plasmodium falciparum IMT K2 harboring Ppcrt M74I, N75E, K76T, A220S, Q271E, N326S mutant gene, Pmdr1 S1034C, N1042D mutant gene and Pfmrp H191Y and S437A mutant gene assessed as incorporation of [3]H hypoxanthine after 48 hrs by scintillation counter; conditions: IMT K2, 48 h
Plasmodium falciparum [45] = assay: Antimalarial activity against Plasmodium falciparum IMT 31 harboring Ppcrt I371R mutant gene assessed as incorporation of [3]H hypoxanthine after 48 hrs by scintillation counter; conditions: IMT 31, 48 h
Plasmodium falciparum [46] = assay: Antimalarial activity against Plasmodium falciparum IMT 10354 harboring Ppcrt M74I, N75E, K76T, A220S mutant gene, Pmdr1 D1246Y mutant gene assessed as incorporation of [3]H hypoxanthine after 48 hrs by scintillation counter; conditions: IMT 10354, 48 h

CCNCc1cc(Nc2ccnc3cc(Cl)ccc23)ccc1O [DESETHYL AMODIAQUINE]
IC50 (Plasmodium falciparum [1]): 27 nM
IC50 (Plasmodium falciparum [2]): 29 nM
IC50 (Plasmodium falciparum [3]): 166 nM
IC50 (Plasmodium falciparum [4]): 135 nM
IC50 (Plasmodium falciparum [5]): 45 nM
IC50 (Plasmodium falciparum [6]): 40 nM
IC50 (Plasmodium falciparum [7]): 32 nM
IC50 (Plasmodium falciparum [8]): 34 nM
IC50 (Plasmodium falciparum [9]): 123 nM
IC50 (Plasmodium falciparum [10]): 314 nM
IC50 (Plasmodium falciparum [11]): 32 nM
IC50 (Plasmodium falciparum [12]): 52 nM
IC50 (Plasmodium falciparum [13]): 119 nM
IC50 (Plasmodium falciparum [14]): 82 nM
IC50 (Plasmodium falciparum [15]): 113 nM
IC50 (Plasmodium falciparum [16]): 26 nM
IC50 (Plasmodium falciparum [17]): 85 nM
IC50 (Plasmodium falciparum [18]): 23 nM
IC50 (Plasmodium falciparum [19]): 104 nM
IC50 (Plasmodium falciparum [20]): 20 nM

Clc1ccc2c(N3CCN(CCCN4CCN(c5ccnc6cc(Cl)ccc56)CC4)CC3)ccnc2c1 [PIPERAQUINE]
IC50 (Plasmodium falciparum [21]): 37 nM
IC50 (Plasmodium falciparum [22]): 61 nM
IC50 (Plasmodium falciparum [1]): 44 nM
IC50 (Plasmodium falciparum [2]): 48 nM
IC50 (Plasmodium falciparum [23]): 46 nM
IC50 (Plasmodium falciparum [24]): 81 nM
IC50 (Plasmodium falciparum [3]): 61 nM
IC50 (Plasmodium falciparum [25]): 58 nM
IC50 (Plasmodium falciparum [4]): 52 nM
IC50 (Plasmodium falciparum [26]): 58 nM
IC50 (Plasmodium falciparum [27]): 75 nM
IC50 (Plasmodium falciparum [5]): 63 nM
IC50 (Plasmodium falciparum [28]): 48 nM
IC50 (Plasmodium falciparum [6]): 81 nM
IC50 (Plasmodium falciparum [29]): 52 nM
IC50 (Plasmodium falciparum [7]): 69 nM
IC50 (Plasmodium falciparum [30]): 80 nM
IC50 (Plasmodium falciparum [31]): 53 nM
IC50 (Plasmodium falciparum [9]): 75 nM
IC50 (Plasmodium falciparum [10]): 98 nM
IC50 (Plasmodium falciparum [32]): 56 nM
IC50 (Plasmodium falciparum [33]): 64 nM
IC50 (Plasmodium falciparum [11]): 55 nM
IC50 (Plasmodium falciparum [34]): 84 nM
IC50 (Plasmodium falciparum [35]): 55 nM
IC50 (Plasmodium falciparum [36]): 53 nM
IC50 (Plasmodium falciparum [12]): 48 nM
IC50 (Plasmodium falciparum [13]): 80 nM
IC50 (Plasmodium falciparum [15]): 64 nM
IC50 (Plasmodium falciparum [16]): 58 nM
IC50 (Plasmodium falciparum [17]): 47 nM
IC50 (Plasmodium falciparum [37]): 98 nM
IC50 (Plasmodium falciparum [38]): 69 nM
IC50 (Plasmodium falciparum [18]): 58 nM
IC50 (Plasmodium falciparum [39]): 44 nM
IC50 (Plasmodium falciparum [19]): 46 nM
IC50 (Plasmodium falciparum [40]): 47 nM
IC50 (Plasmodium falciparum [41]): 74 nM
IC50 (Plasmodium falciparum [42]): 63 nM
IC50 (Plasmodium falciparum [20]): 29 nM
IC50 (Plasmodium falciparum [43]): 74 nM
IC50 (Plasmodium falciparum [44]): 84 nM
IC50 (Plasmodium falciparum [45]): 48 nM
IC50 (Plasmodium falciparum [46]): 29 nM

C=C[C@H]1CN2CC[C@H]1C[C@H]2[C@H](O)c1ccnc2ccc(OC)cc12 [QUININE]
IC50 (Plasmodium falciparum [1]): 138 nM
IC50 (Plasmodium falciparum [2]): 272 nM
IC50 (Plasmodium falciparum [3]): 969 nM
IC50 (Plasmodium falciparum [5]): 322 nM
IC50 (Plasmodium falciparum [7]): 135 nM
IC50 (Plasmodium falciparum [34]): 607 nM
IC50 (Plasmodium falciparum [12]): 240 nM
IC50 (Plasmodium falciparum [15]): 953 nM
IC50 (Plasmodium falciparum [16]): 134 nM
IC50 (Plasmodium falciparum [18]): 48 nM
IC50 (Plasmodium falciparum [19]): 604 nM
IC50 (Plasmodium falciparum [20]): 118 nM
